The source of these data is patent publication US20250154288A1, “CYTOTOXICITY TARGETING CHIMERAS FOR C-C CHEMOKINE RECEPTOR 2-EXPRESSING CELLS” (GLAXOSMITHKLINE INTELLECTUAL PROPERTY DEVELOPMENT LIMITED, priority 2022, published 2025).

For assay [1], the target named is T1, CHOK1 cells engineered to overexpress human CCR2 (Homo sapiens, UniProt P41597).
T1 construct: expressed in transfected cells; host or cells: CHOK1
Description: Antibody Dependent Cellular Cytotoxicity (ADCC) Reporter Assay. The format is cell-based. The note with it: with anti-cotinine antibody (human IgG1 Fc, S239D/I332E); Jurkat FcγRIIIa NFAT-luciferase reporter cells; average if several runs; read-out: ADCC Reporter Assay pEC50 (converted). The method, then:
An antibody dependent cellular cytoxocity reporter assay was conducted using the following four assay components: (i) ARM compound of Formula (I) targeting CCR2 (concentrations ranging from 1 pM to 10 μM) (ii) anti-cotinine antibody having a heavy chain sequence of SEQ ID NO: 11 and a light chain sequence of SEQ ID NO: 12 (rabbit variable region with human IgG1 Fc domain containing a DE mutation (S239D/I332E)) (concentrations ranging from 0.01 μg/mL to 200 μg/mL); (iii) target cells: CHOK1 cells engineered to overexpress either human CCR2 (typically 1000-20,000 cells per well) and (iv) reporter cells: Jurkat cells engineered to express FcγRIIIa with the reporter gene luciferase under the control of the NFAT promoter (typically 3000-75,000 cells per well). Reagents were combined in a final volume of 20 μL in a 384-well tissue culture treated plate. All four assay components were incubated together for about 12-18 hours. Thereafter, BioGlo Detection reagent (Promega) was added to the wells to lyse the cells and provide a substrate for the luciferase reporter protein. Luminescence signal was measured on a microplate reader and signal:background was calculated by dividing the signal of a test well by the signal obtained when no heterobivalent compound of Formula (I) was added. EC50 calculations were done using Graphpad Prism Software, specifically a nonlinear regression curve fit (Y=Bottom+(Top−Bottom)/(1+10 ^((Log EC50−X)*HillSlope))).
ARMs compounds of Formula (I) of the invention were tested for ADCC activity in the above assay in or more experimental runs and the results are shown in Table 3 below. Potency of the compounds of Formula (I) of the invention is reported as a pEC50 value. The pEC50 value is the negative log of the EC50 value, wherein the EC50 value is the half maximal effective concentration measured in molar (M). For compounds tested in more than one experimental run, the pEC50 value is reported as an average.

The target in assay [2] is human alpha1 nicotinic acetylcholine (nACh) receptor (Homo sapiens, UniProt P02708+Q07001). Description: Nicotinic Acetylcholine Receptor Antagonism Assay (IONFlux automated patch clamp). The note with it: for Emax at 100 µM: maximum percentage antagonism at Maximum Concentration of Compound Tested 100 μM, read-out: Maximum Response (%); for IC50: antagonism of nAChR stimulated with acetylcholine, average if several runs. Format: cell-based. The method, then: Cells expressing human alpha1 nicotinic acetylcholine (nACh) receptor (nAChR) were washed and dissociated using Trypsin containing buffer. Cells were then washed and seeded at a density of 3-5 million cells/mL and allowed to grow for 3 days. Then, 60-80 μL of cells were added to plates and incubated with dose response of an ARM compound of Formula (I) with a top concentration of either 10 μM or 100 μM. The receptor was then stimulated via addition of acetylcholine (ACh) and activation of the receptor was monitored via the IONFlux automated patch clamp system. IonFlux Data Analyzer software was utilized to perform leak subtraction and measure (min) peak current amplitude.
Data processing: (1) Current values recorded for vehicle only applications in individual traps/patterns were subtracted from corresponding current amplitude values for control, test article and control+test article. (2) Control response was calculated as % of the average response of the 3rd out of total 3 ACh (10 mM) applications alone. In rare situations, if the 3rd ACh response was obscured due to technical artifacts, the 2nd and/or 1st ACh (10 mM) application was considered as control. The peak current amplitude generated in the presence of each test article concentration was then used to calculate the % inhibition as compared to control response (10 mM ACh alone). These estimates were further corrected for vehicle response and run down corrected by normalizing with time matched control responses (10 mM ACh alone). The corrected percentages were then fit with a non-linear function in GraphPad Prism 6 (or later versions) to determine the IC50.
Exclusion criteria: (i) any n's with poor recording quality, (ii) control current amplitude <500 pA or (iii) significant outliers, as determined by the Grubbs' test.
ARMs compounds of Formula (I) of the invention were tested for antagonism of the nAChR in the above assay in […] experimental runs and the results are shown in Table 6 below. Antagonistic activity of the compounds of Formula (I) of the invention is reported as an IC50 value (half maximal inhibitory concentration) and the maximum percentage antagonism observed at the highest concentration of compound of Formula (I) tested, as indicated in Table 6. For compounds tested in more than one experimental run, the IC50 value is reported as an average.

Molecules are shown by their SMILES. Structures can show the parent of a compound that is named as a salt. A value given as a limit tells only on which side of the number the result lay.

Sequence of human alpha1 nicotinic acetylcholine (nACh) receptor (P02708 21-457): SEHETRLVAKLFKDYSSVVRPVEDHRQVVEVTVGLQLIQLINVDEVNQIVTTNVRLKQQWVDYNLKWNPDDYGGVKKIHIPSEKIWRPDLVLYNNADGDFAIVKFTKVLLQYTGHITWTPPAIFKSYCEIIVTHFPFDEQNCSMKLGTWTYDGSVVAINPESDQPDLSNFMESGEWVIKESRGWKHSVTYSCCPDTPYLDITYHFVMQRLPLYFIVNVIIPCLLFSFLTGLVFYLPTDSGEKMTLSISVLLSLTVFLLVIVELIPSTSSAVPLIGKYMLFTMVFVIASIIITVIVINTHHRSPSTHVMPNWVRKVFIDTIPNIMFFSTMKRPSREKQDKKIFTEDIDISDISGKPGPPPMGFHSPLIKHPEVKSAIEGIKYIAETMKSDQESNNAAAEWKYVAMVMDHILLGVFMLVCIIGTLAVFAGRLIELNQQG
Sequence of human alpha1 nicotinic acetylcholine (nACh) receptor (P11230 24-501 partner): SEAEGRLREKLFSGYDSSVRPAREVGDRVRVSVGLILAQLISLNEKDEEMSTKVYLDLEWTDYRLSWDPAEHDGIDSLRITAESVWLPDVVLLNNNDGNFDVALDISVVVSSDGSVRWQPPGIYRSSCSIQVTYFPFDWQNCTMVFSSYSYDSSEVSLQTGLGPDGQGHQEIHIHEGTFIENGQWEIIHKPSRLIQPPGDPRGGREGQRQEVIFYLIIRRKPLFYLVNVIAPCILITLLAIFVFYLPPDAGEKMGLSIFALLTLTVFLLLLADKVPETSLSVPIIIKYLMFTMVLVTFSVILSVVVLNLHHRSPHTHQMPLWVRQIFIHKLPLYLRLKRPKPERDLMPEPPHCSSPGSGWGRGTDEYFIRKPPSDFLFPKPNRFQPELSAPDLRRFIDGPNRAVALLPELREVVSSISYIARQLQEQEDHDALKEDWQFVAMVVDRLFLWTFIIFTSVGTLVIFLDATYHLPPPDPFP
Sequence of human alpha1 nicotinic acetylcholine (nACh) receptor (Q07001 22-517): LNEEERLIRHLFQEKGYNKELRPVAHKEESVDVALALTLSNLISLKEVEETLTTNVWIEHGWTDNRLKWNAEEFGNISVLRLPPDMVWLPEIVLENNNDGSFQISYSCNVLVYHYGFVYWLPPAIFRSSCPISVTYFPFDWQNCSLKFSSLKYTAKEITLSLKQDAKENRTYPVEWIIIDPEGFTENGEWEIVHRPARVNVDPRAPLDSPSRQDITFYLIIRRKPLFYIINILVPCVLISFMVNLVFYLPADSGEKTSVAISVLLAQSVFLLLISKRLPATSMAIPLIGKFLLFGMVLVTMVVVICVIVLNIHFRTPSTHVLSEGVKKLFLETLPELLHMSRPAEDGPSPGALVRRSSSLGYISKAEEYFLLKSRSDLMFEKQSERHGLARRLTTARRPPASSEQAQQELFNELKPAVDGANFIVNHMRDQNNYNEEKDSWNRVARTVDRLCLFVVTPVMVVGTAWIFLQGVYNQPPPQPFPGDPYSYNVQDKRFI

Regarding `CO[C@@H]1COCC[C@@H]1N[C@@H]1CC[C@](CCCNC(=O)[C@H]2CC[C@@H](NC(=O)CCCO[C@H]3CC[C@@H](OCCNC(=O)[C@H]4CC(=O)N(C)[C@@H]4c4cccnc4)CC3)CC2)(C(=O)N2CCc3ncc(C(F)(F)F)cc3C2)C1` [Example 4, (2S,3S)-N-(2-(((1S,4R)-4-(4-(((1R,4S)-4-((3-((1S,3R)-3-(((3S,4S)-3-Methoxytetrahydro-2H-pyran-4-yl)amino)-1-(3-(trifluoromethyl)-5,6,7,8-tetrahydro-1,6-naphthyridine-6-carbonyl)cyclopentyl)propyl)carbamoyl)cyclohexyl)amino)-4-oxobutoxy)cyclohexyl)oxy)ethyl)-1-methyl-5-oxo-2-(pyridin-3-yl)pyrrolidine-3-carboxamide, Formic acid salt], in assay [1], the EC50 was 0.794 nM. Besides, the Emax at 100 µM in assay [2] is 48%.
As to `CO[C@@H]1COCC[C@@H]1N[C@@H]1CC[C@](COCCNC(=O)[C@H]2CC[C@H](NC(=O)CCCO[C@H]3CC[C@H](OCCNC(=O)[C@H]4CC(=O)N(C)[C@@H]4c4cccnc4)CC3)CC2)(C(=O)N2CCc3ncc(C(F)(F)F)cc3C2)C1` [Example 11, (2S,3S)-N-(2-(((1R,4S)-4-(4-(((1S,4R)-4-((2-(((1S,3R)-3-(((3S,4S)-3-Methoxytetrahydro-2H-pyran-4-yl)amino)-1-(3-(trifluoromethyl)-5,6,7,8-tetrahydro-1,6-naphthyridine-6-carbonyl)cyclopentyl)methoxy)ethyl)carbamoyl)cyclohexyl)amino)-4-oxobutoxy)cyclohexyl)oxy)ethyl)-1-methyl-5-oxo-2-(pyridin-3-yl)pyrrolidine-3-carboxamide], in assay [1], the EC50 is 2.51 nM. In assay [2], the IC50 is over 100000 nM and the Emax at 100 µM stood at 39%.
Take `CO[C@@H]1COCC[C@@H]1N[C@@H]1CC[C@](CCCNC(=O)CCOCCOCCO[C@H]2CC[C@H](OCCNC(=O)[C@H]3CC(=O)N(C)[C@@H]3c3cccnc3)CC2)(C(=O)N2CCc3ncc(C(F)(F)F)cc3C2)C1` [Example 20, ((2S,3S)—N-(2-(((1r,4S)-4-(2-(2-(3-((3-((1S,3R)-3-(((3S,4S)-3-Methoxytetrahydro-2H-pyran-4-yl)amino)-1-(3-(trifluoromethyl)-5,6,7,8-tetrahydro-1,6-naphthyridine-6-carbonyl)cyclopentyl)propyl)amino)-3-oxopropoxy)ethoxy)ethoxy)cyclohexyl)oxy)ethyl)-1-methyl-5-oxo-2-(pyridin-3-yl)pyrrolidine-3-carboxamide, Formic acid salt]: the EC50 in assay [1] was 3.98 nM. The Emax at 100 µM in assay [2] turned out to be 74%.
As to `CO[C@H]1COCC[C@H]1N[C@H]1CC[C@@](CCCNC(=O)[C@H]2CC[C@@H](NC(=O)CCOCCOCCNC(=O)CCNC(=O)[C@H]3CC(=O)N(C)[C@@H]3c3cccnc3)CC2)(C(=O)N2CCc3ncc(C(F)(F)F)cc3C2)C1` [Example 19, (2S,3S)—N-(3-((2-(2-(3-(((1s,4s)-4-((3-((1R,3S)-3-(((3R,4R)-3-Methoxytetrahydro-2H-pyran-4-yl)amino)-1-(3-(trifluoromethyl)-5,6,7,8-tetrahydro-1,6-naphthyridine-6-carbonyl)cyclopentyl)propyl)carbamoyl)cyclohexyl)amino)-3-oxopropoxy)ethoxy)ethyl)amino)-3-oxopropyl)-1-methyl-5-oxo-2-(pyridin-3-yl)pyrrolidine-3-carboxamide], the EC50 in assay [1] was 3.16 nM. Further, in assay [2], the half-inhibitory concentration (IC50) is over 100000 nM and the Emax at 100 µM is 8%.
Turning to `CO[C@@H]1COCC[C@@H]1N[C@@H]1CC[C@](CCCNC(=O)CCOCCOCCOCCOCCOCCOCCOCCOCCOCCOCCOCCOCCNC(=O)[C@H]2CC(=O)N(C)[C@@H]2c2cccnc2)(C(=O)N2CCc3ncc(C(F)(F)F)cc3C2)C1` [Example 1, (2S,3S)—N-(43-((1S,3R)-3-(((3S,4S)-3-methoxytetrahydro-2H-pyran-4-yl)amino)-1-(3-(trifluoromethyl)-5,6,7,8-tetrahydro-1,6-naphthyridine-6-carbonyl)cyclopentyl)-39-oxo-3,6,9,12,15,18,21,24,27,30,33,36-dodecaoxa-40-azatritetracontyl)-1-methyl-5-oxo-2-(pyridin-3-yl)pyrrolidine-3-carboxamide], the EC50 in assay [1] is 2.51 nM. In assay [2], the IC50 is over 100000 nM and the Emax at 100 µM was 29%.
Consider `CO[C@@H]1COCC[C@@H]1N[C@@H]1CC[C@](CCCNC(=O)[C@H]2CC[C@@H](NC(=O)CCOCCOCCOCCNC(=O)[C@H]3CC(=O)N(C)[C@@H]3c3cccnc3)CC2)(C(=O)N2CCc3ncc(C(F)(F)F)cc3C2)C1` [Example 17, (2S,3S)—N-(2-(2-(2-(3-(((1R,4s)-4-((3-((1S,3R)-3-(((3S,4S)-3-Methoxytetrahydro-2H-pyran-4-yl)amino)-1-(3-(trifluoromethyl)-5,6,7,8-tetrahydro-1,6-naphthyridine-6-carbonyl)cyclopentyl)propyl)carbamoyl)cyclohexyl)amino)-3-oxopropoxy)ethoxy)ethoxy)ethyl)-1-methyl-5-oxo-2-(pyridin-3-yl)pyrrolidine-3-carboxamide, Formic acid salt], for which the EC50 in assay [1] is 6.31 nM. In assay [2], the IC50 is at least 100000 nM and the Emax at 100 µM amounted to 21%.
